Measurements taken from PubChem BioAssay (NCI).
Values joined by “and” are separate entries in the source; they are usually repeats but may differ in a detail not shown here. Equal entries are not always repeated.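 Briefly, cells in 96-well plates were exposed to five compound concentrations for 48 h, and endpoints were estimated by linear interpolation. Here, GI50 denotes the concentration required for 50% inhibition of growth. TGI is the concentration that stops growth completely.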

How the values were obtained:
Assay in all cases: NCI tumour cell line growth inhibition, 48 h
SN12C renal = test system: SN12C renal
DMS 273 small cell lung = test system: DMS 273 small cell lung
UACC-257 melanoma = test system: UACC-257 melanoma
SK-MEL-28 melanoma = test system: SK-MEL-28 melanoma
DLD-1 colon = test system: DLD-1 colon
OVCAR-4 ovarian = test system: OVCAR-4 ovarian
MCF7 breast = test system: MCF7 breast
HCC-2998 colon = test system: HCC-2998 colon
SF-295 CNS = test system: SF-295 CNS
UACC-62 melanoma = test system: UACC-62 melanoma

Row | Compound | GI50 (SN12C renal) | TGI (SN12C renal) | GI50 (DMS 273 small cell lung) | TGI (DMS 273 small cell lung) | GI50 (UACC-257 melanoma) | TGI (UACC-257 melanoma) | GI50 (SK-MEL-28 melanoma) | TGI (SK-MEL-28 melanoma) | GI50 (DLD-1 colon) | TGI (DLD-1 colon) | GI50 (OVCAR-4 ovarian) | TGI (OVCAR-4 ovarian) | GI50 (MCF7 breast) | GI50 (HCC-2998 colon) | TGI (HCC-2998 colon) | GI50 (SF-295 CNS) | TGI (SF-295 CNS) | GI50 (UACC-62 melanoma) | TGI (UACC-62 melanoma)
1 | CC1[C@@H]2CC=C3[C@H]4CCC5Cc6nc7c(nc6C[C@@]5(C)C4CC(=O)[C@]32CO[C@]12OC(C)(C)CC2O)CC1CC[C@@H]2C3=C[C@H]4O[C@@]5(O[C@@](C)(CO)C[C@@H]5O)C(C)[C@@]4(O)[C@]3(C)[C@@H](O)CC2[C@]1(C)C7 (some centres undefined) | 0.295 µM | 0.906 µM and > 3.65 µM | 0.000365 µM | 0.000328 µM and 0.000802 µM | 0.00426 µM | 0.0211 µM | 0.00062 µM | 0.00273 µM | 0.0416 µM and 0.0575 µM | 0.709 µM and > 3.65 µM | 0.039 µM and 0.0985 µM | 0.921 µM and > 3.65 µM | 0.000482 µM and 0.00142 µM | 0.292 µM | 0.912 µM and > 3.65 µM | 0.000124 µM and < 0.000365 µM | 0.000434 µM and < 0.000365 µM | 0.000316 µM and 0.000574 µM | 0.00098 µM and 0.0062 µM
2 | CC(=O)O[C@@H]1CC[C@@]2(C)C(=O)C34C[C@@]5(C)C([C@@H](C)CCCC(C)C)CCC5(C)[C@](O)(O3)C(=O)[C@H]4C2C1(C)C (some centres undefined) | – | 26.7 µM | – | 27.2 µM | – | 32.3 µM | – | 35.6 µM | – | 34.7 µM | – | 26.2 µM | – | – | 23.5 µM | – | 29.8 µM | – | 32.6 µM
3 | Cc1cc(Cl)cc2c1NC(=O)C2(O)C(C(=O)c1ccccc1)c1ccccc1 (centres undefined) | > 100 µM and 14.9 µM | > 100 µM and 38.6 µM | – | > 100 µM | 57 µM and 19.9 µM | > 100 µM and 52.1 µM | 96.6 µM and 24.5 µM | > 100 µM and 51 µM | – | > 100 µM | – | > 100 µM and 40 µM | – | – | > 100 µM and 60.4 µM | – | > 100 µM | – | 33.3 µM
4 | O=C(CC(=O)c1cccc([N+](=O)[O-])c1)C(=O)Nc1ccccc1 | – | > 100 µM | – | > 100 µM | – | > 100 µM | – | > 100 µM | – | > 100 µM | – | > 100 µM | – | – | > 100 µM | – | > 100 µM | – | > 100 µM
5 | Cc1ccc(NC(=O)CC2SC(=Nc3ccc(Cl)cc3)NC2=O)cc1C (centres undefined) | – | 31.9 µM | – | 34.3 µM | – | 29.4 µM | – | 33.9 µM | – | 38.5 µM | – | 35.6 µM | – | – | 33.6 µM | – | > 73.3 µM | – | 32.6 µM
6 | CN1C2(c3ccccc3)C(C(=O)c3ccccc3)=C(C(=O)c3ccccc3)C1(c1ccccc1)c1c(-c3ccccc3)sc(-c3ccccc3)c12 | – | > 100 µM | – | > 100 µM | – | > 100 µM | – | > 100 µM | – | > 100 µM | – | > 100 µM | – | – | > 100 µM | – | > 100 µM | – | > 100 µM
7 | Cc1cc(C)nc(NS(=O)(=O)c2ccc(NC(=O)COC(=O)c3cccc4c(=O)c5ccccc5[nH]c34)cc2)n1 | – | > 100 µM | – | > 100 µM | – | 65.1 µM | – | > 100 µM | – | > 100 µM | – | > 100 µM | – | – | 37.9 µM | – | 95.5 µM | – | 34.3 µM
8 | Cc1ccccc1-n1c(CCl)nc2ccc(Br)cc2c1=O | – | 16.6 µM | – | > 100 µM | – | 32.2 µM | – | 32.5 µM | – | 16.6 µM | – | 31.8 µM | – | – | 30.8 µM | – | 58.4 µM | – | 17.9 µM
9 | O=C(Cc1nc2ccccc2o1)C(=O)Nc1ccc(Cl)cc1Cl | – | > 100 µM | – | > 100 µM | – | > 100 µM | – | > 100 µM | – | > 100 µM | – | > 100 µM | – | – | > 100 µM | – | > 100 µM | – | > 100 µM
10 | CCc1ccccc1NC(=O)C(=O)C1C(=O)N(c2ccccc2)N=C1N (centres undefined) | – | > 100 µM | – | > 100 µM | – | > 100 µM | – | > 100 µM | – | > 100 µM | – | > 100 µM | – | – | > 100 µM | – | > 100 µM | – | > 100 µM
11 | N#C/C(=C\c1ccc[nH]1)C(=O)c1ccccc1 | – | > 100 µM | – | > 100 µM | – | > 100 µM | – | > 100 µM | – | > 100 µM | – | > 100 µM | – | – | > 100 µM | – | > 100 µM | – | > 100 µM
12 | Cc1cc(C)c(/C=N/NS(=O)(=O)c2ccccc2)c(C)c1 | – | > 100 µM | – | > 100 µM | – | > 100 µM | – | > 100 µM | – | > 100 µM | – | > 100 µM | – | – | > 100 µM | – | > 100 µM | – | > 100 µM
13 | C[C@]12CCc3nn(-c4ccccc4)nc3C1CC[C@@H]1C2CC[C@]2(C)C(=O)CCC12 (some centres undefined) | – | > 100 µM | – | > 100 µM | – | > 100 µM | – | > 100 µM | – | > 100 µM | – | > 100 µM | – | – | > 100 µM | – | > 100 µM | – | > 100 µM
14 | COC(=O)C(C(=O)C(=O)Nc1ccccc1C)c1nc2ccc([N+](=O)[O-])cc2[nH]c1=O (centres undefined) | – | > 100 µM | – | > 100 µM | – | > 100 µM | – | > 100 µM | – | > 100 µM | – | > 100 µM | – | – | > 100 µM | – | > 100 µM | – | > 100 µM
